Reference: patent US8821887B2, “T-cell antigen peptide from allergen for stimulation of IL-10 production” (Circassia Limited, priority 2008, dated 2014)
Non-standard residues stand in square brackets, D forms with d. No end group written: not given here. 5‑aminobutyric acid = not defined here

system: PBMC's; assay: Cytokine release assay (IL-10 release from PBMCs, ELISA or multiplex bead array); assay type: cell-based; conditions: house dust mite peptides of Example 1; PBMCs of dust mite allergic individuals; 5 days stimulation; FIGS. 1 and 2
Description: FIGS. 1 and 2 show mean IL-10 release (y axis, pg/ml) in response to the house dust mite peptides shown on the x axis, for a population of dust mite allergic individuals.
FIGS. 3 and 4 show mean IL-10 release (y axis, pg/ml) in response to the ragweed peptides shown on the x axis, for a population of ragweed allergic individuals.
Cytokine secretion profiles from PBMC's are analysed in response to the peptide stimulation using the peptides from Examples 1 and 2. Supernatants from the cytokine release assay were tested for the presence of IL-10, using either an ELISA assay or a multiplex bead array assay. A typical cytokine release assay requires 40×10^6 PBMC's per subject. In more detail, 250 μl of a 200 μg/ml solution of the appropriate antigen or peptide concentration is distributed into the appropriate wells of 48 well plates. Plates are then incubated in a humidified 5% CO2 incubator at 37° C. for a maximum of 4 hours. 250 μl of a 5×10^6 cell/ml PBMC suspension is then added to each well and the plates returned to the incubator for 5 days. Following stimulation, samples of culture supernatant are harvested for testing by ELISA or multiplex bead assay according to standard protocols.

Sequence	IL-10 production compared with other peptides	IL-10 release compared with whole allergen
EQELVDSASQHG [HDM03V]	higher IL-10 production than other peptides	–
RNQSLDLAEQELVD ? ASQH (RNQSLDLAEQELVD[5‑aminobutyric acid]ASQH; not fully specified; reading uncertain) [HDM03E, character = 2-aminobutryic acid]	higher IL-10 production than other peptides	higher IL-10 release than whole allergen
DEFKNRFLMSAEAFE [HDM202]	higher IL-10 production than other peptides	higher IL-10 release than whole allergen
ELVDSASQHG (Description of Artificial Sequence: Synthetic HDM03W peptide)	higher IL-10 production than other peptides	higher IL-10 release than whole allergen
RNQSLDLAEQELVDSASQH (Description of Artificial Sequence: Synthetic HDM03D peptide)	higher IL-10 production than other peptides	–

same assay, conditions: ragweed peptides of Example 2; PBMCs of ragweed allergic individuals; 5 days stimulation; FIGS. 3 and 4

Sequence	IL-10 production compared with other peptides	IL-10 release compared with whole allergen
GESALSLTSSAGVLS [RGW07B]	higher IL-10 production than other peptides	–
KGEAAIKLTSSAGVLSKK [RGW07D]	higher IL-10 production than other peptides	higher IL-10 release than whole allergen
KGEAAIKLTSSAGVLSK [RGW07C]	higher IL-10 production than other peptides	–
GEAAIKLTSSAGVLS [RGW07]	higher IL-10 production than other peptides	–
